Experimental data published in patent US20110009342A1, “USES OF PDCD5 POLYPEPTIDE FOR TUMOR CHEMOTHERAPY AND ORGAN PROTECTION” (priority 2008, published 2011).
Entries after “also recorded” stand apart in the source; their conditions may differ.

B1: PDCD5-FITC: rhPDCD5 protein covalently labeled by fluorescein isothiocyanate (conjugate, UniProt O14737 2-125, looked up)
Programmed cell death protein …: ADEELEALRRQRLAELQAKHGDPGDAAQQEAKHREAEMRNSILAQVLDQSARARLSNLALVKPEKTKAVENYLIQMARYGQLSEKVSEQGLIEILKKVSQQTEKTTTVKFNRRKVMDSDEDDDY
modifications: FITC label
notes: rhPDCD5 protein covalently labeled by fluorescein isothiocyanate

Experiments:
K562 cells [1] = test: FITC/Annexin-V apoptosis by flow cytometry, IDR; format: cell-based; settings: IDR 56 ng/mL; PDCD5 30 μg/mL where combined; 24 hours
Protocol: Methods: Cell staining with FITC/Annexin-V and cell apoptosis in vitro detection by flow cytometry: K562 cells (ATCC) were maintained in RPMI 1640 (Life Technologies, USA) supplemented with 10% FBS (Hyclone, USA), and were plated in 24-well culture dishes to a density of 2×10^5 cells/mL. rhPDCD5 protein was added with a final concentration of 7.5 μg/mL, 15 μg/mL and 30 μg/mL, respectively, in each well. Chemotherapeutic drug IDR was then added with a final concentration of 56 ng/mL and RPMI 1640 with 10% FBS was added to make the system to 1 mL. After 24 hours of co-culture, the cells were stained with FITC/Annexin-V (Baosai company) and apoptosis was detected by flow cytometry.

mouse livers [2] = test: Tunel staining of liver paraffin sections of treated K562 xenograft mice; format: in vivo, BALB/c nu/nu mice; settings: five high power microscope fields
Protocol: Methods: BALB/c nu/nu female mice (6-8 weeks of age) were injected intraperitoneally with cyclophosphamide (CTX) (Jiangsu Hengrui Medicine Co., Ltd.), 2 mg/day per mouse for two days. One day after the second cyclophosphamide injection, 1.5×10^7 of K562 cells were injected subcutaneously into the single armpit of each of the mice. The mice bearing K562 cell xenografts were divided randomly into nine groups (n=6, i.e., six mice in each group) and each of the mice was i.p. treated, respectively, with normal saline, PDCD5, IDR (Sigma Corporation), and IDR plus PDCD5. Normal saline, PDCD5 (200 μg, 400 μg, or 800 μg, i.e., 10 mg/kg, 20 mg/kg, or 40 mg/kg, respectively), IDR (25 μg, i.e., 1.25 mg/kg) and IDR (25 μg, i.e., 1.25 mg/kg) plus PDCD5 (200 μg, 400 μg, or 800 μg, i.e., 10 mg/kg, 20 mg/kg, or 40 mg/kg, respectively) were used for intraperitoneal injection every other day for a total of five treatments. […] At the end of the experiment, mice were killed.
The excised liver of mice after treatment were fixed in 10% neutrally buffered formalin and then embedded in paraffin after dehydration. […] Meanwhile, paraffin sections after Tunel (Roche Inc.) staining were used to observe the apoptosis of experimental mouse livers, and then the number of apoptotic cells was counted in five high-power microscope field for statistical analysis.

mouse livers [3] = test: HE staining of liver paraffin sections of treated K562 xenograft mice; format: in vivo, BALB/c nu/nu mice
Protocol: (§1) Methods: BALB/c nu/nu female mice (6-8 weeks of age) were injected intraperitoneally with cyclophosphamide (CTX) (Jiangsu Hengrui Medicine Co., Ltd.), 2 mg/day per mouse for two days. One day after the second cyclophosphamide injection, 1.5×10^7 of K562 cells were injected subcutaneously into the single armpit of each of the mice. The mice bearing K562 cell xenografts were divided randomly into nine groups (n=6, i.e., six mice in each group) and each of the mice was i.p. treated, respectively, with normal saline, PDCD5, IDR (Sigma Corporation), and IDR plus PDCD5. […] At the end of the experiment, mice were killed. The mice were the same batch of that of Example 6. The excised liver of mice after treatment were fixed in 10% neutrally buffered formalin and then embedded in paraffin after dehydration. The paraffin embedding was cut and paraffin sections after HE staining were used to observe the necrosis of experimental mouse livers. Meanwhile, paraffin sections after Tunel (Roche Inc.) staining were used to observe the apoptosis of experimental mouse livers, and then the number of apoptotic cells was counted in five high-power microscope field for statistical analysis.

K562 cell xenografts = K562 cell xenografts in nude mice, IDR; format: in vivo, BALB/c nude mice; settings: IDR 70 μg
Protocol: Methods: BALB/c nude female mice (6-8 weeks of age) were used, and the mice were pretreated by i.p. injections of cyclophosphamide (Jiangsu Hengrui Medicine Co., Ltd.) once daily at a dose of 2 mg per mouse for two consecutive days. After two days of the cyclophosphamide injection, 1.5×10^7 K562 cells were injected subcutaneously into the single flanks of the mouse. The mice bearing K562 cell xenografts were divided randomly into five groups: Normal saline, irrelevant protein, rhPDCD5, IDR (idarubicin, Sigma Company), and IDR plus rhPDCD5. IDR treatments were given every other day i.p. The longest diameter and shortest diameter of tumors were measured by vernier caliper at the beginning of treatment and during the treatment. […] At the end of the experiment, the mice were killed and tumor masses were dissected and then weighed. […] Tumor volume was calculated using the following formula: πls^2/6, where 1=long diameter and s=short diameter.

mouse bone marrow = test: HE staining of bone marrow paraffin sections of treated K562 xenograft mice; format: in vivo, BALB/c nu/nu mice; settings: combination compared with IDR alone
Protocol: Methods: Cyclophosphamide (CTX) (Jiangsu Hengrui Medicine Co., Ltd.) was used for intraperitoneal injection in BALB/c nu/nu female mice (6-8 weeks of age) and injection lasted for two days. One day after the second cyclophosphamide injection, 1.5×10^7 of K562 cells were injected subcutaneously into the single armpit of the mice. The mice bearing K562 cell xenografts were divided randomly into nine groups (n=6, i.e., six mice in each group) and i.p. treated with normal saline, PDCD5, IDR (Sigma Corporation), and IDR plus PDCD5. Normal saline, PDCD5 (200 μg, 400 μg, or 800 μg, i.e., 10 mg/kg, 20 mg/kg, or 40 mg/kg), […]., 1.25 mg/kg) and […]., 1.25 mg/kg) plus PDCD5 (200 μg, 400 μg, or 800 μg, i.e., 10 mg/kg, 20 mg/kg, or 40 mg/kg) were used for intraperitoneal injection and were given every other day for a total of five treatments. […] At the end of the experiment, mice were killed. The mice were the same batch of that in Example 6. The excised bone of mice after treatment were fixed in 10% neutrally buffered formalin and then embedded in paraffin after dehydration. The paraffin embedding was cut and paraffin sections after HE staining were used to count the number of nucleated cells of each group in mouse bone marrow paraffin sections.

mice hearts = test: HE staining of heart paraffin sections of treated K562 xenograft mice; format: in vivo, BALB/c nu/nu mice
Protocol: as §1, with “hearts” for “liver”, “myocardial congestion, hemorrhage, and myofiber degeneration” for “necrosis”, “heart” for “experimental mouse livers. Meanwhile, paraffin sections after Tunel (Roche Inc.) staining were used to observe the apoptosis of experimental mouse livers, and then the number of apoptotic cells was counted”, “mice.” for “five high-power microscope field for statistical analysis.”

K562 cells [4] = test: clonogenic assay of agarose, IDR; format: cell-based; settings: Homo sapiens, K562, 336 h; IDR 35 ng/mL; PDCD5 15-60 μg/mL where combined; 14 days; read-out: rate of clonogenic inhibition
Protocol: Clonogenic assay of agarose: Cell concentration was adjusted to 2.5×10^5 cell/mL. NS (control group) was prepared by taking 0.01 mL single-cell suspension, 0.5 mL 1% agarose, and 0.5 mL 2×RPMI 1640 medium containing 20% FCS, to bring the culture system to 1.0 mL. Test groups were prepared by taking 0.01 mL single-cell suspension and 0.5 mL 1% agarose, and taking IDR and PDCD5 diluted with 2×RPMI 1640 medium containing 20% FCS to an appropriated volume (having a final concentration of 35 ng/mL for IDR, and a final concentration of 15 μg/mL, 30 μg/mL, or 60 μg/mL for PDCD5 in each respective test group) and further diluted by adding 2×RPMI 1640 medium containing 20% FCS to 0.5 mL, and bringing the culture system to 1.0 mL. The culture system was added to 24-well plates, with 1 mL per well, and triplicate wells for each group. The plates were incubated in a CO2 incubator for 14 days until colonies formed. The clonogenic number was counted by microscope. A colony with more than 30 cells was counted as one positive colony.

U937 cells = test: PDCD5-FITC internalization, flow cytometry; format: cell-based; settings: incubated at 4° C.
HEK293 cells [5] = test: PDCD5-FITC internalization, flow cytometry; format: cell-based; settings: incubated at 4° C.
Protocol: Methods: HEK293 and U937 cells (ATCC) were maintained in RPMI 1640 (Life Technologies, USA), supplemented with 10% heat-inactivated fetal bovine serum (Hyclone, USA), penicillin (100 units/mL), streptomycin (100 μg/mL), and L-glutamine (2 mM). The HEK293 cells were adherent cells with expression of caveolin-1, while the U937 cells were suspension cells without expression of caveolin-1.
The purified rhPDCD5 protein from Example 2 was suspended into 0.025 M sodium carbonate-sodium bicarbonate buffer (pH 9.0). The rhPDCD5 protein was labeled (covalent) by fluorescein isothiocyanate (FITC, Sigma-Aldrich) as described by Masseyeff R. F. et al. (Methods Immunology Analysis 3, 237-238, 1993), and then purified by Sephadex G25 to remove free FITC to obtain PDCD5-FITC protein.
Results: Performance of Flow Cytometry: Quantification of internalized FITC-labeled PDCD5 recombinant protein: HEK293cells were plated in 24-well plates to about 70% confluence, […] FIG. 3. After incubation, the cells were then washed twice, trypsinized, centrifuged, again washed twice with PBS, and finally analyzed by flow cytometry using a FACSCalibur flow cytometer (BD Biosciences).

HEK293 cells [6] = test: intracellular localization of FITC-labeled PDCD5, fluorescence microscopy; format: cell-based; settings: 20 μg/mL, 5 hours
Protocol: Analysis of intracellular localization of the FITC-labeled recombinant PDCD5 protein by fluorescence microscopy: HEK293 cells were grown in specialized glass-bottom microwell dishes (MatTek Corp., USA) to about 50% confluence and washed, and then fresh 10% fetal bovine serum medium and PDCD5-FITC was added to a final concentration of 20 μg/mL. At each time point shown in the drawing, the cells were rinsed twice with PBS buffer and fixed with 2% paraformaldehyde in PBS for 15 min at room temperature. Cells were imaged using a TCS-SP laser-scanning confocal microscope with a 40× or 63×oil immersion lenses (Leica Microsystems, Mannheim, Germany). Nuclei were visualized by Hoechst 33342 (red regions, a pseudocolor).

[7] = no PDCD5, Imatinib 1.2 mg oral or IDR 25 μg i.p., n=6

Molecule	cell apoptosis rate (K562 cells [1])	number of apoptotic cells in mice liver, IDR alone vs IDR combined with PDCD5 (mouse livers [2])	sinusoidal expansion, congestive hemorrhage and necrosis of liver cells surrounding sinusoid (in words) (mouse livers [3]; HE staining)	Sinusoidal expansion, congestive hemorrhage and necrosis of liver cells surrounding sinusoid: mice graded + (mouse livers [3]; [7])	Sinusoidal expansion, congestive hemorrhage and necrosis of liver cells surrounding sinusoid: mice graded ++ (mouse livers [3]; [7])	Sinusoidal expansion, congestive hemorrhage and necrosis of liver cells surrounding sinusoid: mice graded +/− (mouse livers [3]; [7])	Sinusoidal expansion, congestive hemorrhage and necrosis of liver cells surrounding sinusoid: mice graded − (mouse livers [3]; [7])	tumor inhibitory rate (K562 cell xenografts; PDCD5 local (intratumoral) injection, 60 μg where combined)	tumor inhibitory rate (K562 cell xenografts; treatment started at average tumor volume 57.7 mm^3, PDCD5 i.p. 800 μg where combined)	number of mouse bone marrow nucleated cells (mouse bone marrow)	myocardial hemorrhage and congestion, and myofiber fracture/degeneration (in words) (mice hearts; HE staining)	Myocardial hemorrhage and congestion: mice graded + (mice hearts; [7])	Myocardial hemorrhage and congestion: mice graded ++ (mice hearts; [7])	Myocardial hemorrhage and congestion: mice graded − (mice hearts; [7])	Myofiber degeneration: mice graded + (mice hearts; [7])	Myofiber degeneration: mice graded − (mice hearts; [7])	inhibition at 0.035 µg/mL (K562 cells [4])	internalization (uptake) at 4° C. (U937 cells)	internalization (uptake) at 4° C. (HEK293 cells [5])	intracellular localization of fluorescence (HEK293 cells [6])
CC(=O)[C@]1(O)Cc2c(O)c3c(c(O)c2[C@@H](O[C@H]2C[C@H](N)[C@H](O)[C@H](C)O2)C1)C(=O)c1ccccc1C3=O [IDR, idarubicin]	22.57%	significantly higher	significant	3 number of mice	3 number of mice	0 number of mice	0 number of mice	60.27%	62.79%	decreased	significant	3 number of mice	3 number of mice	0 number of mice	3 number of mice	3 number of mice	35.5%	–	–	–
B1	–	–	–	–	–	–	–	–	–	–	–	–	–	–	–	–	–	blocked; also recorded: inhibited	blocked; also recorded: inhibited	localized to discrete compartments in the cytoplasm
